Results from the NIST ThermoML archive (doi:10.1021/acs.jced.9b00846).
± gives the expanded uncertainty stated by the source.

Details: Liquid, Vibrating tube method

CC(C)C(C)C(C)C [2,3,4-trimethylpentane]
Details	mass density [kg/m3]
323.15 K, 34994 kPa	725.9 ± 1
323.15 K, 39992 kPa	729.4 ± 1
323.15 K, 45046 kPa	732.8 ± 1
323.15 K, 49980 kPa	736 ± 1.1
323.15 K, 54968 kPa	739.1 ± 1.1
323.15 K, 59988 kPa	742.1 ± 1.1
323.15 K, 65068 kPa	745 ± 1.1
328.15 K, 94 kPa	691.3 ± 0.8
328.15 K, 4971 kPa	696.6 ± 0.8
328.15 K, 9997 kPa	701.7 ± 0.9
328.15 K, 14959 kPa	706.4 ± 0.9
328.15 K, 19969 kPa	710.9 ± 0.9
328.15 K, 25055 kPa	715.1 ± 0.9
328.15 K, 29960 kPa	719 ± 1
328.15 K, 34966 kPa	722.7 ± 1
328.15 K, 40013 kPa	726.3 ± 1
328.15 K, 45034 kPa	729.8 ± 1
328.15 K, 50015 kPa	733.1 ± 1.1
328.15 K, 54973 kPa	736.2 ± 1.1
328.15 K, 59955 kPa	739.2 ± 1.1
328.15 K, 64992 kPa	742.2 ± 1.1
333.15 K, 95 kPa	687.1 ± 0.8
333.15 K, 4934 kPa	692.6 ± 0.8
333.15 K, 9973 kPa	697.9 ± 0.9
333.15 K, 14973 kPa	702.8 ± 0.9
333.15 K, 19993 kPa	707.4 ± 0.9
333.15 K, 24959 kPa	711.6 ± 0.9
333.15 K, 29952 kPa	715.7 ± 1
333.15 K, 34974 kPa	719.5 ± 1
333.15 K, 39961 kPa	723.2 ± 1
333.15 K, 44999 kPa	726.7 ± 1
333.15 K, 49992 kPa	730.1 ± 1.1
333.15 K, 54798 kPa	733.2 ± 1.1
333.15 K, 59952 kPa	736.4 ± 1.1
333.15 K, 65050 kPa	739.5 ± 1.1
338.15 K, 115 kPa	683.1 ± 0.8
338.15 K, 4978 kPa	688.9 ± 0.8
338.15 K, 9970 kPa	694.3 ± 0.9
338.15 K, 14966 kPa	699.3 ± 0.9
338.15 K, 19960 kPa	703.9 ± 0.9
338.15 K, 24994 kPa	708.4 ± 0.9
338.15 K, 30030 kPa	712.5 ± 1
338.15 K, 34973 kPa	716.3 ± 1
338.15 K, 39979 kPa	720 ± 1
338.15 K, 45024 kPa	723.6 ± 1
338.15 K, 50019 kPa	727.1 ± 1.1
338.15 K, 54928 kPa	730.3 ± 1.1
338.15 K, 59953 kPa	733.5 ± 1.1
338.15 K, 64998 kPa	736.6 ± 1.2
343.15 K, 109 kPa	678.8 ± 0.8
343.15 K, 5084 kPa	684.9 ± 0.9
343.15 K, 9963 kPa	690.4 ± 0.9
343.15 K, 15039 kPa	695.6 ± 0.9
343.15 K, 20010 kPa	700.4 ± 0.9
343.15 K, 24998 kPa	704.9 ± 0.9
343.15 K, 30054 kPa	709.2 ± 1
343.15 K, 35048 kPa	713.2 ± 1
343.15 K, 40023 kPa	717 ± 1
343.15 K, 44967 kPa	720.6 ± 1
343.15 K, 50023 kPa	724.2 ± 1.1
343.15 K, 54967 kPa	727.5 ± 1.1
343.15 K, 59995 kPa	730.7 ± 1.1
343.15 K, 64954 kPa	733.8 ± 1.2
348.15 K, 112 kPa	674.5 ± 0.8
348.15 K, 5011 kPa	680.8 ± 0.9
348.15 K, 10066 kPa	686.6 ± 0.9
348.15 K, 14992 kPa	691.9 ± 0.9
348.15 K, 19955 kPa	696.8 ± 0.9
348.15 K, 25042 kPa	701.5 ± 0.9
348.15 K, 29986 kPa	705.8 ± 1
348.15 K, 35004 kPa	709.9 ± 1
348.15 K, 40002 kPa	713.9 ± 1
348.15 K, 44996 kPa	717.6 ± 1
348.15 K, 49994 kPa	721.1 ± 1.1
348.15 K, 54995 kPa	724.6 ± 1.1
348.15 K, 60005 kPa	727.9 ± 1.1
348.15 K, 65009 kPa	731 ± 1.2
353.15 K, 109 kPa	670.1 ± 0.8
353.15 K, 4963 kPa	676.6 ± 0.9
353.15 K, 9919 kPa	682.5 ± 0.9
353.15 K, 15039 kPa	688.2 ± 0.9
353.15 K, 19995 kPa	693.2 ± 0.9
353.15 K, 24983 kPa	698 ± 0.9
353.15 K, 29960 kPa	702.4 ± 1
353.15 K, 34985 kPa	706.7 ± 1
353.15 K, 39983 kPa	710.7 ± 1
353.15 K, 45037 kPa	714.5 ± 1
353.15 K, 49989 kPa	718.1 ± 1.1
353.15 K, 54953 kPa	721.6 ± 1.1
353.15 K, 59909 kPa	724.9 ± 1.1
353.15 K, 65052 kPa	728.2 ± 1.2
358.15 K, 118 kPa	665.9 ± 0.8
358.15 K, 4955 kPa	672.5 ± 0.9
358.15 K, 9916 kPa	678.7 ± 0.9
358.15 K, 15035 kPa	684.5 ± 0.9
358.15 K, 19946 kPa	689.6 ± 0.9
358.15 K, 25037 kPa	694.6 ± 0.9
358.15 K, 29963 kPa	699.2 ± 1
358.15 K, 35027 kPa	703.4 ± 1
358.15 K, 40010 kPa	707.5 ± 1
358.15 K, 44955 kPa	711.4 ± 1.1
358.15 K, 50023 kPa	715.1 ± 1.1
358.15 K, 54980 kPa	718.7 ± 1.1
358.15 K, 59952 kPa	722 ± 1.1
358.15 K, 65021 kPa	725.4 ± 1.2
363.15 K, 101 kPa	661.3 ± 0.8
363.15 K, 4941 kPa	668.3 ± 0.9
363.15 K, 9928 kPa	674.7 ± 0.9
363.15 K, 15005 kPa	680.6 ± 0.9
363.15 K, 19958 kPa	686 ± 0.9
363.15 K, 24923 kPa	691 ± 0.9
363.15 K, 29983 kPa	695.8 ± 1
363.15 K, 34922 kPa	700.1 ± 1
363.15 K, 39992 kPa	704.4 ± 1
363.15 K, 45038 kPa	708.4 ± 1.1
363.15 K, 49985 kPa	712.2 ± 1.1
363.15 K, 54981 kPa	715.8 ± 1.1
363.15 K, 59985 kPa	719.3 ± 1.1
363.15 K, 65038 kPa	722.6 ± 1.2
